# Experimental data taken from US12338263B2, “Antibacterial aminoglycoside derivatives” (priority 2019, dated 2025).
# Columns and labels:
# [1] = Evaluation of pharmacokinetics in rats; format: in vivo; conditions: rat, plasma, male SD rats, 150 mg/kg single intravenous drop infusion for 30 minutes
# Protocol: • 1) Experimental drug: Compound 1; • 2) Experimental animals: 3 male SD rats aged 7-9 weeks; • 3) Drug preparation: An appropriate amount of the drug was weighed and dissolved in saline to forma 60 mg/mL solution. Experimental Operation:
# Animals were administered the drug at a dose of 150 mg/kg and a concentration of 60 mg/mL by a single intravenous drop infusion via the tail vein for 30 minutes. Plasma samples were collected from the animals at 0, 0.0333, 0.0833, 0.25, 0.5, 1, 2, 4, 6, 8 and 24 hours after administration. The LC-MS/MS method was used to determine the drug concentration in the plasma sample, and the kinetic parameters of the tested drug are shown in Table 2: […]
# [2] = test system: auditory function in guinea pigs; assay: Auditory safety: compound action potential (CAP) in guinea pigs; format: in vivo; conditions: guinea pig, in vivo, sc, 100 mg/kg
# Protocol: (§1) Healthy adult guinea pigs (150-250 g) were employed as the research objects, and were randomly divided into saline control group, gentamicin group, compound Plazomicin group and Compound 1 group, with 8 animals in each group. Subcutaneous administration is used, and the following assays were carried out during and after the administration for 14 consecutive days: • 1. To analyze the effects of different drugs on the auditory function of guinea pigs, the compound action potential (CAP) of animals was recorded on the 14th day (29th day, i.e., 4 weeks) after administration. The results obtained were analyzed and the changes of the threshold shift, amplitude, latency and other indicators among different treatment groups were compared. • 2. After the different groups of animals were processed and the auditory function data thereof were collected, the cochlea of the animals was taken out for fixation and staining. Surface preparation of basilar membrane of the cochlea on one side was performed to count the loss of hair cells so as to make a cochlea map, and the cochlea on the other side was decalcified and frozen sectioned. The density of spiral ganglion neurons was counted and compared among groups. Research Results: 1. Administration Method and Treatment
# (§2) Gentamicin from Dalian Meilun Biotechnology Co., Ltd., and Plazomicin and Compound 1 from WuXi AppTec (WuHan) Co., Ltd. are used, the solution of which were prepared just before use each time by using saline for dissolution to the concentration of 50 mg/mL, and the injection dose was 100 mg/kg body weight. Method: subcutaneous injection, and confirmation of no liquid leakage after each injection.
# The compound action potential (CAP) was tested and recorded when clicks and different frequencies of pure tones (1 KHz-32 kHz) were applied to each group of animals, and variations in amplitude and latency were mainly compared when clicks and medium and high frequency pure tones (16, 32 kHz) were applied. The magnitude of amplitude reflects the responsiveness of hair cells and auditory nerves. The larger the amplitude and the greater the slope of the I/O curve were, the better the responsiveness and the better the function were. In addition, the cochlea from apical turn to basal turn was responsive to sounds from low-frequency to high-frequency respectively, which is the frequency correspondence of the cochlear basilar membrane. The functional changes to different frequencies correspond to the different structural and functional changes of the cochlea fromapical turn to basal turn. The length of latency was also related to the function of the hair cells and auditory nerve response. Generally speaking, increasing of the threshold value when the cochlea was injured would inevitably lead to the extension of latency. […] In other words, the extension of latency reflected the decrease of response function. The previous ototoxicity of aminoglycoside antibiotics was mainly concentrated in the high-frequency area. In this study, the gentamicin group was consistent with previous results, as summarized below.
# cochlear hair cells = assay: Auditory safety: hair cell staining and counting on the basilar membrane of the cochlea; format: in vivo, guinea pigs
# Protocol: as §1, §2
# In order to compare the effects of different drugs on hair cells, hair cell staining and counting on the whole basilar membrane of the cochlea are performed. […] The Plazomicin group had 11.2-28.1% loss of outer hair cells in the high frequency (70-100% from the apical turn) and 16.7-24.2% loss of the outer hair cells at the beginning of the apical turn (10-20%). However, in the Compound 1 group, the loss of outer hair cells only occurred in the low-frequency region (from the top turn −40%), in which the loss rate of outer hair cells was about 2.5-11%, and the outer hair cells were relatively intact in the high frequency area (see FIG. 6 B).
# [3] = Study on pharmacokinetics in mice; format: in vivo, CD-1 mice; conditions: mouse, plasma, CD-1 male mice, 1 mg/kg single intravenous injection
# Protocol: CD-1 male mice aged 7 to 10 weeks were selected and treated by intravenous administration at the dose of 1 mg/kg. The mice were fasted for at least 12 hours before the administration, and resumed feeding 4 hours after the administration. The mice were free to drink during the entire experiment.
# On the day of the experiment, the animals in the intravenous group were administered with corresponding compound by a single injection via tail vein with an administration volume of 5 mL/kg. The animals were weighed before the administration, and the administration volume was calculated based on the body weight. The sample collection time was: 0.083, 0.25, 0.5, 1, 2, 4, 8, and 24 h. Approximately 30 μL whole blood was collected through the saphenous vein at each time point to prepare plasma for high performance liquid chromatography-tandem mass spectrometry (LC-MS/MS) to determine the concentration.
# All animals were subjected to euthanasia under CO2 anesthesia after the PK samples at the last time point were collected. The non-compartmental model of the pharmacokinetic software WinNonlin™ Version 6.3 (Pharsight, Mountain View, CA) was used to process the data of plasma concentration, and the linear log-trapezoidal method was used to calculate the pharmacokinetic parameters.
# [4] = read-out: Area Under the Curve AUC
# [5] = read-out: Half-Life T1/2 (converted)
# [6] = read-out: Maximum Concentration Cmax
# [7] = read-out: Volume of Distribution Vd
structure (smiles),measurement,setting,value
CN[C@@H]1[C@@H](O)[C@@H](O[C@@H]2[C@@H](O)[C@H](O[C@H]3OC(CNCCOCCONC(=N)N)=CC[C@H]3N)[C@@H](N)C[C@H]2NC(=O)[C@@H](O)CCN)OC[C@]1(C)O [Compound 1],AUC,[1]; [4],440 µM·h
same,clearance,[1]; read-out: Clearance Rate Cl,9.48 mL/min/kg
same,half-life,[1]; [5],3.62 h
same,Cmax,[1]; [6],316 µM
same,Vd,[1]; [7],1.5 L/kg
same,CAP amplitude under click,[2],consistent with the Control group
same,hearing damage (CAP amplitude) at 16 kHz,[2],no different from the Control group
same,"hearing damage to experimental animals (CAP amplitude, overall)",[2],significantly lower than that of Gentamicin and Plazomicin
same,CAP amplitude at 16 kHz,[2]; 29 day,381.646±20.895 uv
same,CAP amplitude at 32 kHz,[2]; 29 day,79.420±7.000 uv
same,hearing damage (CAP amplitude) at 32 kHz,[2]; 29 day,34.7%
same,reduction of hearing damage at 32 kHz compared to Gentamicin,[2]; 29 day,39.6%
same,reduction of hearing damage at 32 kHz compared to Plazomicin,[2]; 29 day,13.5%
same,loss rate of outer hair cells,"cochlear hair cells; guinea pig, in vivo, 29 day",2.5-11%
same,damage to inner hair cells (overall),"cochlear hair cells; guinea pig, in vivo, sc, 100 mg/kg",almost undamaged
same,hair cell toxicity (overall),"cochlear hair cells; guinea pigs, 100 mg/kg subcutaneous 14 days",significantly lower than that of the Gentamicin and the Plazomicin
same,AUC,[3]; [4],1.92 µM·h
same,clearance,[3]; read-out: Clearance Rate Cl,15.1 mL/min/kg
same,half-life,[3]; [5],0.396 h
same,Cmax,[3]; [6],7.09 µM
same,Vd,[3]; [7],0.369 L/kg
